Source: patent US20080009418A1, “Selective Inhibitors” (Alchemia LTD., priority 2004, published 2008)

Tests used:
[1] = molecular target: T1, Human opioid (ORL1) (Homo sapiens, UniProt P41146); test: Radioligand binding, human opioid ORL1 membranes, FlashPlate, [125I]-Nociceptin; conditions: compound at 10 μM; human ORL1 membranes
T1 construct: purchased Perkin Elmer Biosignal
Summary of the method: (§1)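 Cloned human receptor membranes were coated onto FlashPlate wells and incubated with radioligand and compound (added from a 0.5 mM DMSO daughter plate) for 1 hour at room temperature in the dark. Scintillation counting gave percent inhibition, with DMSO defining total and reference ligand defining non-specific binding.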

[2] = molecular target: T2, Mouse urotensin (mUR2) (Mus musculus, UniProt Q8VIH9); test: Radioligand binding, mouse urotensin mUR2 membranes, FlashPlate, [125I]-Urotensin II; conditions: compound at 10 μM; mouse urotensin mUR2 membranes
T2 construct: purchased Perkin Elmer Biosignal
T2 sequence (Q8VIH9 1-385): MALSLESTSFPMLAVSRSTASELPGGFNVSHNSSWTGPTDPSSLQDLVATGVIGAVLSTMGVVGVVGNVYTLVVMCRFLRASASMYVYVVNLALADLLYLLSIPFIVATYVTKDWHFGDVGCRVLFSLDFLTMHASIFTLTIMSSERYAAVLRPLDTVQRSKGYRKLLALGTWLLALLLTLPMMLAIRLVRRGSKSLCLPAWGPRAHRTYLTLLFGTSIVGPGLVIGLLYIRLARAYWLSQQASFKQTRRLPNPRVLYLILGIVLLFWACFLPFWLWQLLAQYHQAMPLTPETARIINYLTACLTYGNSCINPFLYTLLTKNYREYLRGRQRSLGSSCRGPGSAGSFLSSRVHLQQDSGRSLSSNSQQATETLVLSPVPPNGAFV
Summary of the method: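 Cloned mouse urotensin (mUR2) receptor membranes from Perkin Elmer Biosignal were immobilized in FlashPlate microplates using a proprietary coating. Each well got 19.5 μl buffer, then 0.5 μl of DMSO, reference ligand, or compound. Adding 5 μl of [125I]-Urotensin II, diluted to 5× final concentration in binding buffer, started binding. Plates were sealed with TopSeal-A and incubated 1 hour at room temperature in the dark. Wells were counted for 30 seconds each on a TopCount after a 60-second delay, and percentage inhibition was calculated.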

[3] = molecular target: T3, Human melanocortin (MC5) (Homo sapiens, UniProt P33032); test: Radioligand binding, human melanocortin MC5 membranes, FlashPlate, [125I]-NDP-αMSH; conditions: compound at 10 μM; human melanocortin MC5 membranes
T3 construct: purchased Perkin Elmer Biosignal
T3 sequence (P33032 whole entry): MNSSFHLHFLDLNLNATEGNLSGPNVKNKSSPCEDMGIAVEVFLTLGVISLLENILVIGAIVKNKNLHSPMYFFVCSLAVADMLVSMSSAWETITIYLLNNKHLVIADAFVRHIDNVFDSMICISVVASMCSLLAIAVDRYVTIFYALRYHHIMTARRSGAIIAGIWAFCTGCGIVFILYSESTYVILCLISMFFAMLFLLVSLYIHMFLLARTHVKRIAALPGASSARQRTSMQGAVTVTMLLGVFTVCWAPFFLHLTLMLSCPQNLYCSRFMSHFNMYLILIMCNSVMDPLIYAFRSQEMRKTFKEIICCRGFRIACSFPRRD
Summary of the method: as §1

[4] = molecular target: T4, Human neurokinin (NK1) (Homo sapiens, UniProt P25103); test: Radioligand binding, human neurokinin NK1 membranes, filtration, [125I]-Substance P; conditions: compound at 10 μM; human neurokinin NK1 membranes
T4 construct: purchased Perkin Elmer Biosignal
T4 sequence (P25103 whole entry): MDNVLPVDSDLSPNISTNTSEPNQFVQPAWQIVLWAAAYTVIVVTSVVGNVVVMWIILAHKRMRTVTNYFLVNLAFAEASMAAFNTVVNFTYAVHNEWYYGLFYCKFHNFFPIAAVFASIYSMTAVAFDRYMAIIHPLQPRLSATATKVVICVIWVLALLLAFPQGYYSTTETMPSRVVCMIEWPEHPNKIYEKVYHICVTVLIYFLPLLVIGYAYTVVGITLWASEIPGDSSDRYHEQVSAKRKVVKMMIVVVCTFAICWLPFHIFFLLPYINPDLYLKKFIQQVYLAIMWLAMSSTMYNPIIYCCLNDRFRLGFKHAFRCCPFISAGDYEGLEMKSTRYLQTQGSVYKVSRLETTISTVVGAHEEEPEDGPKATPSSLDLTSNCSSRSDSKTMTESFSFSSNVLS
Summary of the method: (§2)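 Filtration binding on cloned human receptor membranes (1 Unit/well), [125I]-Substance P for NK1 and [3H]-Diprenorphine for KOP, 1 h at room temperature. Filters PEI-presoaked, washed with cold 50 mM Tris-HCl pH 7.4, counted by scintillation; percent inhibition calculated, reference ligand defining non-specific binding.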

[5] = molecular target: T5, Human μ-opioid (MOP) (Homo sapiens, UniProt P35372); test: Radioligand binding, human μ-opioid (MOP) membranes, FlashPlate, [3H]-Naloxone; conditions: compound at 10 μM; human μ-opioid (MOP) membranes
T5 construct: purchased Perkin Elmer Biosignal
T5 sequence (P35372 whole entry): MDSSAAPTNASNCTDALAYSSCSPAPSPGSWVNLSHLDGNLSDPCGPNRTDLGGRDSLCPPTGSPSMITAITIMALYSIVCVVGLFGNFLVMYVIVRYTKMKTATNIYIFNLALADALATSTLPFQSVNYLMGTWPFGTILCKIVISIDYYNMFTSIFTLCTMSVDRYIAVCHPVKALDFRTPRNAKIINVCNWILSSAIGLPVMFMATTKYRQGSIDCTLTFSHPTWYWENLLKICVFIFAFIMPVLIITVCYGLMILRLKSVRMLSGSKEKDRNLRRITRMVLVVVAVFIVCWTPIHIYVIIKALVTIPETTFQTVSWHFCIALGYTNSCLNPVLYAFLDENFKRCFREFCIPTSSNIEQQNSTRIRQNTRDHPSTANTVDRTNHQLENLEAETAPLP
Summary of the method: as §1

[6] = molecular target: T6, Human Melanocortin (MC3) (Homo sapiens, UniProt P41968); test: Radioligand binding, human melanocortin MC3 membranes, FlashPlate, [125I]-NDP-αMSH; conditions: compound at 10 μM; human melanocortin MC3 membranes
T6 construct: purchased Perkin Elmer Biosignal
T6 sequence (P41968 whole entry): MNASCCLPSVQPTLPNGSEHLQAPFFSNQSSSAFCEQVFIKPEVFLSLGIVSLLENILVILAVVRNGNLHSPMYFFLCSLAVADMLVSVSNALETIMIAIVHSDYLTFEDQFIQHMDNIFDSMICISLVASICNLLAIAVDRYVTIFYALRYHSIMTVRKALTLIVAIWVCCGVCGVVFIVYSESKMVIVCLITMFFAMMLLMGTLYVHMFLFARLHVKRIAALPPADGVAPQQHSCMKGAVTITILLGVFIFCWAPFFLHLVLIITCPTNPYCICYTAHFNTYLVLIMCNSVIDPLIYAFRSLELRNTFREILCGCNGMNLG
Summary of the method: as §1

[7] = molecular target: T7, Human melanin-concentrating hormone (MCH1) (Homo sapiens, UniProt Q99705); test: Radioligand binding, human melanin-concentrating hormone MCH1 membranes, FlashPlate, [125I]-S36057; conditions: compound at 10 μM; human MCH1 membranes
T7 construct: purchased Perkin Elmer Biosignal
T7 sequence (Q99705 whole entry): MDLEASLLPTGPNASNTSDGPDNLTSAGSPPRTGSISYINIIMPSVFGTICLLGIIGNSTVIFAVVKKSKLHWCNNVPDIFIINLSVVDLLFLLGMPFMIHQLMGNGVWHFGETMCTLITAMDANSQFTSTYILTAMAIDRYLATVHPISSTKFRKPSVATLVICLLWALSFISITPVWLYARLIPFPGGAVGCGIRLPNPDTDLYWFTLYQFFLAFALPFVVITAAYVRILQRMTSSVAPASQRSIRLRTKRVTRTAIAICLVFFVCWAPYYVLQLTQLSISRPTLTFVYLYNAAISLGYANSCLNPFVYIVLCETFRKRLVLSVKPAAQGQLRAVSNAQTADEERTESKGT
Summary of the method: as §1

[8] = molecular target: T8, Human Melanocortin (MC4) (Homo sapiens, UniProt P32245); test: Radioligand binding, human melanocortin MC4 membranes, FlashPlate, [125I]-NDP-αMSH; conditions: compound at 10 μM; human melanocortin MC4 membranes
T8 construct: purchased Perkin Elmer Biosignal
T8 sequence (P32245 whole entry): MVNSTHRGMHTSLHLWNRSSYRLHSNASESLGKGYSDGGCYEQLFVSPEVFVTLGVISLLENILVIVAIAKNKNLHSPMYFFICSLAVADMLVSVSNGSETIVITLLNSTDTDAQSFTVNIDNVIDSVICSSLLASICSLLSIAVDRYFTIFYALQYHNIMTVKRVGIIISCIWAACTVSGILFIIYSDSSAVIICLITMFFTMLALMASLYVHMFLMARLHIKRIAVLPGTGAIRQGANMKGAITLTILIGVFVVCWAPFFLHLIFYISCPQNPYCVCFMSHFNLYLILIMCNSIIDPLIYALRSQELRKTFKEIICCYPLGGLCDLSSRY
Summary of the method: as §1

[9] = molecular target: T9, Human κ-Opioid (KOP) (Homo sapiens, UniProt P41145); test: Radioligand binding, human κ-opioid (KOP) membranes, filtration, [3H]-Diprenorphine; conditions: compound at 10 μM; human κ-opioid (KOP) membranes
T9 construct: purchased Perkin Elmer Biosignal
T9 sequence (P41145 whole entry): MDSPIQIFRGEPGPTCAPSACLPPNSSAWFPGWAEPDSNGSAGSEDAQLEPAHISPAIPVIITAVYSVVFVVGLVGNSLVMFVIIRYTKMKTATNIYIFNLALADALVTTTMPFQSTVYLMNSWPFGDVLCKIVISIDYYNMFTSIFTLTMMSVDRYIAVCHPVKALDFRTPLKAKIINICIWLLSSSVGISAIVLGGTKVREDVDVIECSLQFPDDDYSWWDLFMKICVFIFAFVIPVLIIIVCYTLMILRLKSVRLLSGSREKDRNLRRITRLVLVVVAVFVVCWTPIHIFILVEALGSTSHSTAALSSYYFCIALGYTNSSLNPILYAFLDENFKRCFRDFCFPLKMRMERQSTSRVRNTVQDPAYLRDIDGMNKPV
Summary of the method: as §2

[10] = molecular target: T10, Human δ-opioid (DOP) (Homo sapiens, UniProt P41143); test: Radioligand binding, human δ-opioid (DOP) membranes, FlashPlate, [3H]-Bremazocine; conditions: compound at 10 μM; human δ-opioid (DOP) membranes
T10 construct: purchased Perkin Elmer Biosignal
T10 sequence (P41143 whole entry): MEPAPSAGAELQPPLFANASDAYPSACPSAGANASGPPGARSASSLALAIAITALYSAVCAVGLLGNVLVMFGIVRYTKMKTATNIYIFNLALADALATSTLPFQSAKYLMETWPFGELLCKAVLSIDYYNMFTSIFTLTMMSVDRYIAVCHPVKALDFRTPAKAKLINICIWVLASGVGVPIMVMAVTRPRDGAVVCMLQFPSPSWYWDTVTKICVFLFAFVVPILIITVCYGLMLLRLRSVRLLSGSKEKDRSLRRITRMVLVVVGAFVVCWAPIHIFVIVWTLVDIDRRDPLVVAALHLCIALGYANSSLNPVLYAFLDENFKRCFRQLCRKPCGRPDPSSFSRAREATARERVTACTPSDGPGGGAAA
Summary of the method: as §1

[11] = molecular target: T11, Human neuropeptide Y (NPY-Y1) (Homo sapiens, UniProt P25929); test: Radioligand binding, human neuropeptide Y NPY-Y1 membranes, FlashPlate, [125I]-PYY; conditions: compound at 10 μM; human NPY-Y1 membranes
T11 construct: purchased Perkin Elmer Biosignal
T11 sequence (P25929 1-384): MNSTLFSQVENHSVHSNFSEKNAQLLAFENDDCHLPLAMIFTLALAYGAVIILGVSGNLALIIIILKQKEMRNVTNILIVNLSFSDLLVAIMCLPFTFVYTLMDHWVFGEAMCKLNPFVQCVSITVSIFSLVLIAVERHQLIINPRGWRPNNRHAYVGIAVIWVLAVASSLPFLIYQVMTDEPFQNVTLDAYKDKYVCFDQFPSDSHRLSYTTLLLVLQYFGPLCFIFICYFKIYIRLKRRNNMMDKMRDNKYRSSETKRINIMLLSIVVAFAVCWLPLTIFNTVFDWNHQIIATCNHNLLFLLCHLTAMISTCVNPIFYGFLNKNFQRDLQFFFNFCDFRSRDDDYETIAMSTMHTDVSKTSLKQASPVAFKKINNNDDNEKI
Summary of the method: as §1

T1 sequence (P41146 whole entry): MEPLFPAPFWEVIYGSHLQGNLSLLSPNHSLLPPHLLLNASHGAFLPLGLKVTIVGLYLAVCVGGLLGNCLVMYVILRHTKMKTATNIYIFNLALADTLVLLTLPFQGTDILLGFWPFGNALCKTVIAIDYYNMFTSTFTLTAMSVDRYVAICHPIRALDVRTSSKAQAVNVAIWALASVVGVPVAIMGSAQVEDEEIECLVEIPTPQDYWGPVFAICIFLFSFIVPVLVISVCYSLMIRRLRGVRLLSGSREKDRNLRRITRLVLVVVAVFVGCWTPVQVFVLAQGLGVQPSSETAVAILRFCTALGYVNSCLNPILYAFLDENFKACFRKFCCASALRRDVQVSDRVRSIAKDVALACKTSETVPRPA

Compound | A10 radioligand binding inhibition [1] | A11 radioligand binding inhibition [2] | A5 radioligand binding inhibition [3] | A8 radioligand binding inhibition [4] | A7 radioligand binding inhibition [5] | A3 radioligand binding inhibition [6] | A6 radioligand binding inhibition [7] | A4 radioligand binding inhibition [8] | A2 radioligand binding inhibition [9] | A1 radioligand binding inhibition [10] | A9 radioligand binding inhibition [11]
COC[C@H]1OC(OCCc2ccccc2)[C@H](NC(=O)CNC(=N)N)[C@@H](OCc2ccc(Cl)cc2)[C@@H]1O (stereo partly drawn) [compound 48] | − (“−” indicates less than 50% inhibition at 10 μM) | − (“−” indicates less than 50% inhibition at 10 μM) | + (“+” indicates greater than 50% inhibition at 10 μM) | − (“−” indicates less than 50% inhibition at 10 μM) | − (“−” indicates less than 50% inhibition at 10 μM) | − (“−” indicates less than 50% inhibition at 10 μM) | + (“+” indicates greater than 50% inhibition at 10 μM) | + (“+” indicates greater than 50% inhibition at 10 μM) | − (“−” indicates less than 50% inhibition at 10 μM) | − (“−” indicates less than 50% inhibition at 10 μM) | − (“−” indicates less than 50% inhibition at 10 μM)
COC[C@H]1OC(OCCc2ccccc2)[C@H](NC(=O)CCNC(=N)N)[C@@H](OCc2ccc(Cl)cc2)[C@@H]1O (stereo partly drawn) [compound 49] | − (“−” indicates less than 50% inhibition at 10 μM) | − (“−” indicates less than 50% inhibition at 10 μM) | − (“−” indicates less than 50% inhibition at 10 μM) | + (“+” indicates greater than 50% inhibition at 10 μM) | − (“−” indicates less than 50% inhibition at 10 μM) | − (“−” indicates less than 50% inhibition at 10 μM) | − (“−” indicates less than 50% inhibition at 10 μM) | + (“+” indicates greater than 50% inhibition at 10 μM) | − (“−” indicates less than 50% inhibition at 10 μM) | − (“−” indicates less than 50% inhibition at 10 μM) | − (“−” indicates less than 50% inhibition at 10 μM)
COC[C@H]1OC(OCCc2ccccc2)[C@H](NC(=O)CCCNC(=N)N)[C@@H](OCc2ccc(Cl)cc2)[C@@H]1O (stereo partly drawn) [compound 50] | − (“−” indicates less than 50% inhibition at 10 μM) | − (“−” indicates less than 50% inhibition at 10 μM) | − (“−” indicates less than 50% inhibition at 10 μM) | + (“+” indicates greater than 50% inhibition at 10 μM) | − (“−” indicates less than 50% inhibition at 10 μM) | − (“−” indicates less than 50% inhibition at 10 μM) | + (“+” indicates greater than 50% inhibition at 10 μM) | − (“−” indicates less than 50% inhibition at 10 μM) | − (“−” indicates less than 50% inhibition at 10 μM) | − (“−” indicates less than 50% inhibition at 10 μM) | − (“−” indicates less than 50% inhibition at 10 μM)
CO[C@H]1[C@H](O)[C@@H](COCc2ccc(-c3ccccc3)cc2)OC(OCc2ccc(-c3ccccc3)cc2)[C@@H]1NC(=O)CNC(=N)N (stereo partly drawn) [compound 51] | + (“+” indicates greater than 50% inhibition at 10 μM) | − (“−” indicates less than 50% inhibition at 10 μM) | + (“+” indicates greater than 50% inhibition at 10 μM) | + (“+” indicates greater than 50% inhibition at 10 μM) | − (“−” indicates less than 50% inhibition at 10 μM) | + (“+” indicates greater than 50% inhibition at 10 μM) | + (“+” indicates greater than 50% inhibition at 10 μM) | + (“+” indicates greater than 50% inhibition at 10 μM) | − (“−” indicates less than 50% inhibition at 10 μM) | − (“−” indicates less than 50% inhibition at 10 μM) | − (“−” indicates less than 50% inhibition at 10 μM)
CO[C@H]1[C@H](O)[C@@H](COCc2ccc(-c3ccccc3)cc2)OC(OCc2ccc(-c3ccccc3)cc2)[C@@H]1NC(=O)CCNC(=N)N (stereo partly drawn) [compound 52] | + (“+” indicates greater than 50% inhibition at 10 μM) | − (“−” indicates less than 50% inhibition at 10 μM) | + (“+” indicates greater than 50% inhibition at 10 μM) | + (“+” indicates greater than 50% inhibition at 10 μM) | + (“+” indicates greater than 50% inhibition at 10 μM) | + (“+” indicates greater than 50% inhibition at 10 μM) | + (“+” indicates greater than 50% inhibition at 10 μM) | + (“+” indicates greater than 50% inhibition at 10 μM) | − (“−” indicates less than 50% inhibition at 10 μM) | − (“−” indicates less than 50% inhibition at 10 μM) | − (“−” indicates less than 50% inhibition at 10 μM)
CO[C@H]1[C@H](O)[C@@H](COCc2ccc(-c3ccccc3)cc2)OC(OCc2ccc(-c3ccccc3)cc2)[C@@H]1NC(=O)CCCN (stereo partly drawn) [compound 53] | − (“−” indicates less than 50% inhibition at 10 μM) | − (“−” indicates less than 50% inhibition at 10 μM) | − (“−” indicates less than 50% inhibition at 10 μM) | − (“−” indicates less than 50% inhibition at 10 μM) | − (“−” indicates less than 50% inhibition at 10 μM) | − (“−” indicates less than 50% inhibition at 10 μM) | + (“+” indicates greater than 50% inhibition at 10 μM) | − (“−” indicates less than 50% inhibition at 10 μM) | − (“−” indicates less than 50% inhibition at 10 μM) | − (“−” indicates less than 50% inhibition at 10 μM) | − (“−” indicates less than 50% inhibition at 10 μM)
